“Also recorded” adds a separate entry of the source. Where no end group is shown, it is not given here.
Tests used:
[1] = system: patients with NIDDM and secondary failure to sulfonylurea treatment; assay: Basal state and meal test in NIDDM patients with secondary failure to sulfonylurea treatment (Example 2); type: in vivo, human; conditions: for Insulinogenic index: after ingestion of the meal, integrated insulin/integrated glucose response; for Blood glucose: 45 minutes after start of administration, glibenclamide 1 mg i.v., GLP-1(7-36)amide 0.75 pmol/kg/min
[2] = system: insulin treated obese NIDDM patients; assay: Meal test in insulin treated obese NIDDM patients (Example 1); type: in vivo, human; conditions: meal-related, glibenclamide 1 mg i.v., GLP-1(7-36)amide infusion 0.75 pmol/kg/min for 210 min, 6 NIDDM patients
[3] = system: diabetic as well as nondiabetic subjects; conditions: diabetic and nondiabetic subjects; cited from earlier work
[4] = system: isolated precultured rat pancreatic islets; conditions: in the presence of glucose; cited from earlier work

Compound	Insulinogenic index [1]	Blood glucose ([1]; basal state) [mmol/L]	Glucagon response [2]	Glucagon response ([2]; listed as GLP-1(7-36) amide)	insulinotropic action [3]	effect on blood glucose and C-peptide levels ([1]; basal state, in words)	insulin release [4]
GLP-1(7-36)amide	21.0 ± 7.2	5.1 ± 0.4	10451 ± 5126 pg/ml/210 min	suppressed the glucagon response	–	–	–
GLP-1(7-37) (HAEGTFTSDVSSYLEGQAAKEFIAWLVKGRG; Glucagon-like peptide 1(7-37); UniProt P01275 98-128, looked up) [GLP-1 fragment, residues 7 to 37; formula I when X is Gly--OH]	–	–	–	–	has been demonstrated	–	–
COc1ccc(Cl)cc1C(=O)NCCc1ccc(S(=O)(=O)NC(=O)NC2CCCCC2)cc1 [glibenclamide]	10.6 ± 2.8	6.0 ± 0.3	no significant influence on glucagon release; also recorded: no significant effect	–	–	no significant effect on its own	–
GLP-1(1-36)amide (HDEFERHAEGTFTSDVSSYLEGQAAKEFIAWLVKGR-NH2; UniProt P01275 92-127, looked up, fragment) [amide of the GLP-1 fragment comprising amino acid residues 1 to 36]	–	–	–	–	–	–	stimulates insulin release
